According to patent publication EP3313408B1, “DROSPIRENONE-BASED CONTRACEPTIVE FOR A PATIENT AFFECTED WITH EXCESS WEIGHT” (Laboratorios Leon Farma SA, priority 2015, dated 2016):

Assay: Trial CF111/302: number of days with bleeding and/or spotting over 9 treatment cycles
Assay type: in vivo, women
Description: The study CF111/302 below represents a pivotal, multicentre, double-blind, double-dummy, randomised trial on the contraceptive efficacy, tolerability and safety of LF111 (DRSP) over 9 cycles of 28 days of treatment (24 active test product tablets followed by 4 days of placebo tablets).
LF111 film-coated tablets (test product; 24 tablets containing 4 mg DRSP followed by 4 placebo tablets; León Farma) was orally administered during this trial. LF111 tablets are of the following formula: […]
This prospective, multicentre, randomised, double-blind, double-dummy trial was conducted on 857 women without uncontrolled current diseases, at risk of pregnancy, at the age of 18-45 years, systolic blood pressure < 140 mmHg, diastolic blood pressure < 90 mmHg followed in approximately 73 centres in Austria, Czech Republic, Germany, Hungary, Poland, Romania, Slovakia and Spain.
After providing informed consent at visit 1a (screening; V 1a) and receiving study medication at visit 1b, subjects will attend visits 2 to 4 at day 24±2 of the 1st, 3rd, and 6th cycle, and visit 5 (V5) at day 29+2 of the 9th cycle. The follow-up (visit 6; V6) will take place 7-10 days after last LF1 1 1 intake.
The planned total duration of the trial was set to be 16 months, with a maximum of 6 months for the enrolment process, a maximum of 9 months for the contraceptive treatment per se and 10 days for the follow-up step. The duration of contraceptive treatment for the individual women is 9 x 28 days. […]

SMILES: C#C[C@]1(O)CC[C@H]2[C@@H]3CCC4=CCCC[C@@H]4[C@H]3C(=C)C[C@@]21CC [desogestrel]
- Bleeding or spotting Mean # days (Period cycles 2-4, BMI < 30 kg/m^2): 16.6 days
- Bleeding or spotting Mean # days (Period cycles 2-4, BMI ≥ 30 kg/m^2): 21.8 days
- Bleeding or spotting Mean # days (Period cycles 2-6, BMI < 30 kg/m^2): 24.1 days
- Bleeding or spotting Mean # days (Period cycles 2-6, BMI ≥ 30 kg/m^2): 16.3 days
- Bleeding or spotting Mean # days (Period cycles 2-9, BMI < 30 kg/m^2): 34.7 days
- Bleeding or spotting Mean # days (Period cycles 2-9, BMI ≥ 30 kg/m^2): 33.9 days
